The text below walks through data of patent publication US10093623B2, “Cyclic amides as MetAP-2 inhibitors” (MERCK PATENT GmbH, priority 2012, dated 2018).

The target in the test is MetAP-2 (Homo sapiens, UniProt P50579). The experiment in a line: MetAP-2 activity measurement (coupled enzymatic reactions, Met-Arg-Ser substrate, dianisidine detection at 450 nm). Type of test: biochemical. Conditions: Inhibition of MetAP-2; read-out: IC50 enzyme. As to the method: MetAP-2 Activity Measurement
The MetAP-2 activity is determined by coupling enzymatic reactions. The tripeptide Met-Arg-Ser (MAS) is employed as substrate. The methionine liberated is firstly converted into Metox and H2O2 by L-aminooxidase (AAO). In the second step, the peroxidase (POD) with the aid of the H2O2 catalyses the oxidation of the leukodye dianisidine to dianisidineox, the increase of which is detected photometrically at 450 nm.
MetAP-2 activity can be recorded continuously as kinetics. The reaction scheme illustrates that one mol of dianisidineox is formed per mol of methionene. The MetAP-2 enzyme activity can therefore be calculated directly as A absorption per time unit. Qualification of the MetAP-2 activity (mol of Met/time unit) is possible with the aid of the dianisidineox extinction coefficient.
The change in extinction per time unit is depicted graphically and a slope calculation is carried out in the visually linear region of the reaction.

Each structure is given as a SMILES string. Bounds are passed on as bounds.

Chain of MetAP-2 (P50579 whole entry, species assumed): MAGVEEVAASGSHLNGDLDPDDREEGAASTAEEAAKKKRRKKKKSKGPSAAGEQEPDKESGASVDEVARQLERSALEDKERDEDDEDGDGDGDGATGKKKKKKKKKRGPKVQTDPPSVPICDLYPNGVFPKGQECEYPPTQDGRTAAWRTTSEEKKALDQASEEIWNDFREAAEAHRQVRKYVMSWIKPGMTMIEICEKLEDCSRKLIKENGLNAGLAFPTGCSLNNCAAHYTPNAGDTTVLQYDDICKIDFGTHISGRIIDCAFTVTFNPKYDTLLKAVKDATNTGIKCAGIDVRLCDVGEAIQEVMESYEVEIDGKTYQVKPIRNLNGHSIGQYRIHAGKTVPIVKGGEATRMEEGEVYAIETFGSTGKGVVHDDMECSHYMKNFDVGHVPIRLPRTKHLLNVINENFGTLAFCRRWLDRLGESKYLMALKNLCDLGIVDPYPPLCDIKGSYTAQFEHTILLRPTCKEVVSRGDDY

In the case of `OC1(CNCc2cc(F)cc(Cl)c2)CCN(c2ccccc2)C1` (stereo not shown) [A120, 3-[(3-chloro-5-fluorobenzylamino)methyl]-1-phenylpyrrolidin-3-ol], the concentration for half-maximal inhibition (IC50) was > 10000 nM.

For `O=C(NCc1cc(F)cc(Cl)c1)C1(O)CCN(Cc2ccccc2)C1` (stereo not shown) [A121, N-(3-chloro-5-fluorobenzyl)-1-benzyl-3-hydroxypyrrolidine-3-carboxamide], the IC50 was 1000 to 10000 nM.

Regarding `CC(=O)N[C@H]1CC[C@H](N2CCC(O)(C(=O)NCc3cc(F)cc(Cl)c3)C2=O)CC1` (stereo partly shown) [A122, N-(3-Chloro-5-fluorobenzyl)-1-(4-acetylaminocyclohexyl)-3-hydroxy-2-oxopyrrolidine-3-carboxamide], the IC50 was in the range of 1000 to 10000 nM.

In the case of `CS(=O)(=O)N[C@H]1CC[C@H](N2CCC(O)(C(=O)NCc3cc(F)cc(Cl)c3)C2=O)CC1` (stereo partly shown) [A123, N-(3-Chloro-5-fluorobenzyl)-3-hydroxy-1-(4-methane-sulfonylaminocyclohexyl)-2-oxo-pyrrolidine-3-carboxamide], the IC50 lay within 1000 to 10000 nM.

Turning to `CCS(=O)(=O)N[C@H]1CC[C@H](N2CCC(O)(C(=O)NCc3cc(F)cc(Cl)c3)C2=O)CC1` (stereo partly shown) [A124, N-(3-Chloro-5-fluorobenzyl)-1-(4-ethanesulfonylamino-cyclohexyl)-3-hydroxy-2-oxo-pyrrolidine-3-carboxamide], the IC50 lay within 1000 to 10000 nM.

In the case of `O=C(NCc1cc(F)cc(Cl)c1)C1(O)CCN([C@H]2CCC[C@H](O)[C@@H]2O)C1=O` (stereo partly drawn) [A125, N-(3-Chloro-5-fluorobenzyl)-1-((1S,2R,3S)-2,3-dihydroxy-cyclohexyl)-3-hydroxy-2-oxo-pyrrolidine-3-carboxamide], the IC50 lay in the range of 1000 to 10000 nM.

On to `CC(=O)NC1CCCC(N2CCC(O)(C(=O)NCc3cc(F)cc(Cl)c3)C2=O)C1` (stereo not shown) [A126, N-(3-Chloro-5-fluorobenzyl)-1-(3-acetylaminocyclohexyl)-3-hydroxy-2-oxopyrrolidine-3-carboxamide], for which the IC50 lay within 1000 to 10000 nM.

Regarding `CCN[C@H]1CC[C@H](N2CCC(O)(C(=O)NCc3cc(F)cc(Cl)c3)C2=O)CC1` (stereo partly shown) [A127, N-(3-Chloro-5-fluorobenzyl)-1-(4-ethylaminocyclohexyl)-3-hydroxy-2-oxopyrrolidine-3-carboxamide], the IC50 lay within 1000 to 10000 nM.

On to `CCS(=O)(=O)NC1CCCC(N2CCC(O)(C(=O)NCc3cc(F)cc(Cl)c3)C2=O)C1` (stereo not shown) [A128, N-(3-Chloro-5-fluorobenzyl)-1-(3-ethanesulfonylamino-cyclohexyl)-3-hydroxy-2-oxo-pyrrolidine-3-carboxamide], for which the IC50 was in the range of 1000 to 10000 nM.

In the case of `CC1(C)O[C@H]2[C@H](CCC[C@@H]2N2CCC(O)(C(=O)NCc3cc(F)cc(Cl)c3)C2=O)O1` (stereo partly drawn) [A129, N-(3-Chloro-5-fluorobenzyl)-1-((3aR,4S,7aS)-2,2-dimethyl-hexahydrobenzo-1,3-dioxol-4-yl)-3-hydroxy-2-oxopyrrolidine-3-carboxamide], the IC50 was 1000 to 10000 nM.

With `NC(=O)c1cc(C(N)=O)cc(N2CCC(O)(C(=O)NCc3cc(F)cc(Cl)c3)C2=O)c1` (stereo not shown) [A130, 5-[3-(3-Chloro-5-fluorobenzylcarbamoyl)-3-hydroxy-2-oxopyrrolidin-1-yl]-isophthalamide], the IC50 is 1000 to 10000 nM.

For the molecule `O=C(NCc1cc(F)cc(Cl)c1)C1(O)CCN([C@@H]2CCNC2)C1=O` (stereo partly drawn) [A131, N-(3-Chloro-5-fluorobenzyl)-(R)-3-hydroxy-2-oxo-[1,3′]bipyrrolidinyl-3-carboxamide], the IC50 was > 10000 nM.

As for `CNC(=O)c1cccc(N2CCC(O)(C(=O)NCc3cc(F)cc(Cl)c3)C2=O)c1` (stereo not shown) [A133, N-(3-Chloro-5-fluorobenzyl)-3-hydroxy-1-(3-methylcarbamoyl-phenyl)-2-oxopyrrolidine-3-carboxamide], the IC50 fell in the range of 10 to 1000 nM.

On to `CN(C)C(=O)c1cccc(N2CCC(O)(C(=O)NCc3cc(F)cc(Cl)c3)C2=O)c1` (stereo not shown) [A134, N-(3-Chloro-5-fluorobenzyl)-1-(3-Dimethylcarbamoylphenyl)-3-hydroxy-2-oxopyrrolidine-3-carboxamide], for which the IC50 fell in the range of 10 to 1000 nM.

As to `COc1ccc(CN2CCC(O)(C(=O)NCc3cc(F)cc(Cl)c3)C2=O)cc1` (stereo not shown) [A135, N-(3-Chloro-5-fluorobenzyl)-3-hydroxy-1-(4-methoxybenzyl)-2-oxopyrrolidine-3-carboxamide], the 50% inhibitory concentration (IC50) fell in the range of 10 to 1000 nM.

Regarding `O=C(NCc1cc(F)cc(Cl)c1)C1(O)CCN(Cc2ccccc2)C1=O` (stereo not shown) [A136, N-(3-Chloro-5-fluorobenzyl)-1-benzyl-3-hydroxy-2-oxo-pyrrolidine-3-carboxamide], the IC50 lay within 10 to 1000 nM.

Regarding `O=C1CCc2cc(N3CCC(O)(C(=O)NCCc4cc(F)cc(Cl)c4)C3=O)ccc2N1` (stereo not shown) [A137, N-[2-(3-Chloro-5-fluorophenyl)-ethyl]-3-hydroxy-2-oxo-1-(2-oxo-1,2,3,4-tetrahydroquinolin-6-yl)-pyrrolidine-3-carboxamide], the IC50 is 10 to 1000 nM.

On to `COc1ccc(N2CCC(O)(C(=O)NCc3cc(F)cc(Cl)c3)C2=O)cn1` (stereo not shown) [A138, N-(3-Chloro-5-fluorobenzyl)-3-hydroxy-1-(6-methoxypyridin-3-yl)-2-oxopyrrolidine-3-carboxamide], for which the IC50 lay in the range of 10 to 1000 nM.

With `CC(=O)Nc1ccc(N2CCC(O)(C(=O)NCCc3cc(F)cc(Cl)c3)C2=O)cn1` (stereo not shown) [A139, N-[2-(3-Chloro-5-fluorophenyl)-ethyl]-1-(6-acetylaminopyridin-3-yl)-3-hydroxy-2-oxopyrrolidine-3-carboxamide], the IC50 was in the range of 10 to 1000 nM.

Regarding `O=C(NCc1cc(F)cc(Cl)c1)[C@@]1(O)CCN(Cc2ccccc2)C1=O` [A140, N-(3-Chloro-5-fluorobenzyl)-(S)-1-benzyl-3-hydroxy-2-oxo-pyrrolidine-3-carboxamide], the IC50 fell in the range of 10 to 1000 nM.

For the molecule `O=C(NCc1cc(F)cc(Cl)c1)[C@]1(O)CCN(Cc2ccccc2)C1=O` [A141, N-(3-Chloro-5-fluorobenzyl)-(R)-1-benzyl-3-hydroxy-2-oxo-pyrrolidine-3-carboxamide], the IC50 is > 10000 nM.

In the case of `Cc1cc(N2CCC(O)(C(=O)NCc3cc(F)cc(Cl)c3)C2=O)cnc1N1CCOCC1=O` (stereo not shown) [A142, N-(3-Chloro-5-fluorobenzyl)-3-hydroxy-1-[5-methyl-6-(3-oxo-morpholin-4-yl)-pyridin-3-yl]-2-oxopyrrolidine-3-carboxamide], the half-maximal inhibitory concentration (IC50) lay within 10 to 1000 nM.

For `CC(=O)Nc1ccc(N2CCC(O)(C(=O)NCCc3ccccc3C(F)(F)F)C2=O)cn1` (stereo not shown) [A143, N-[2-(2-Trifluoromethylphenyl)-ethyl]-1-(6-acetylaminopyridin-3-yl)-3-hydroxy-2-oxopyrrolidine-3-carboxamide], the IC50 fell in the range of 10 to 1000 nM.

For `NC(=O)c1cccc(N2CCC(O)(C(=O)NCCc3ccccc3C(F)(F)F)C2=O)c1` (stereo not shown) [A144, N-[2-(2-Trifluoromethylphenyl)-ethyl]-1-(3-carbamoylphenyl)-3-hydroxy-2-oxopyrrolidine-3-carboxamide], the IC50 lay in the range of 10 to 1000 nM.

Turning to `CC(NC(=O)C1(O)CCN(c2ccccc2)C1=O)c1cccc(F)c1` (stereo not shown) [A145, N-[1-(3-Fluorophenyl)ethyl]-3-hydroxy-2-oxo-1-phenyl-pyrrolidine-3-carboxamide], the IC50 fell in the range of 1000 to 10000 nM.

For `CNC(=O)c1cc2cc(N3CCC(O)(C(=O)NCc4cc(F)cc(Cl)c4)C3=O)ccc2o1` (stereo not shown) [A146, N-(3-Chloro-5-fluorobenzyl)-3-hydroxy-1-(2-methylcarbamoyl-benzofuran-5-yl)-2-oxo-pyrrolidine-3-carboxamide], the IC50 was in the range of 10 to 1000 nM.

Consider `O=C(NCc1cc(F)cc(Cl)c1)C1(O)CCN(c2ccc3[nH]c(=O)ccc3c2)C1=O` (stereo not shown) [A147, N-(3-Chloro-5-fluorobenzyl)-3-hydroxy-2-oxo-1-(2-oxo-1,2-dihydroquinolin-6-yl)pyrrolidine-3-carboxamide], for which the IC50 is 10 to 1000 nM.

`CCOC(=O)[C@H]1CC[C@H](N2CCC(O)(C(=O)NCc3cc(F)cc(Cl)c3)C2=O)CC1` (stereo partly shown) [A148, Ethyl 4-[3-(3-chloro-5-fluorobenzylcarbamoyl)-3-hydroxy-2-oxopyrrolidin-1-yl]-cyclohexanecarboxylate]: the IC50 lay within 1000 to 10000 nM.

On to `O=C1CCc2cc(N3CC[C@](O)(C(=O)NCCc4cc(F)cc(Cl)c4)C3=O)ccc2N1` [A149, N-[2-(3-Chloro-5-fluorophenyl)-ethyl]-(S)-3-hydroxy-2-oxo-1-(2-oxo-1,2,3,4-tetrahydroquinolin-6-yl)pyrrolidine-3-carboxamide], for which the IC50 was in the range of 10 to 1000 nM.

For the molecule `O=C1CCc2cc(N3CC[C@@](O)(C(=O)NCCc4cc(F)cc(Cl)c4)C3=O)ccc2N1` [A150, N-[2-(3-Chloro-5-fluorophenyl)-ethyl]-(R)-3-hydroxy-2-oxo-1-(2-oxo-1,2,3,4-tetrahydroquinolin-6-yl)pyrrolidine-3-carboxamide], the IC50 is > 10000 nM.

With `O=C1COc2cc(N3CCC(O)(C(=O)NCc4cc(F)cc(Cl)c4)C3=O)ccc2N1` (stereo not shown) [A151, N-(3-Chloro-5-fluorobenzyl)-3-hydroxy-2-oxo-1-(3-oxo-3,4-dihydro-2H-benzo-1,4-oxazin-7-yl)pyrrolidine-3-carboxamide], the IC50 was in the range of 10 to 1000 nM.

Consider `O=C(NCc1cc(F)cc(Cl)c1)C1(O)CCN([C@H]2CC[C@H](C(=O)O)CC2)C1=O` (stereo partly shown) [A152, 4-[3-(3-Chloro-5-fluorobenzyl-carbamoyl)-3-hydroxy-2-oxo-pyrrolidin-1-yl]-cyclohexanecarboxylic acid], for which the IC50 fell in the range of 1000 to 10000 nM.

Take `O=C(NCc1cc(F)cc(Cl)c1)[C@@]1(O)CCN(c2ccc3cc[nH]c3c2)C1=O` [A153, N-(3-Chloro-5-fluorobenzyl)-(S)-3-hydroxy-1-(1H-indol-6-yl)-2-oxopyrrolidine-3-carboxamide]: the IC50 lay in the range of 10 to 1000 nM.

On to `O=C(NCc1cc(F)cc(Cl)c1)[C@]1(O)CCN(c2ccc3cc[nH]c3c2)C1=O` [A154, N-(3-Chloro-5-fluorobenzyl)-(R)-3-hydroxy-1-(1H-indol-6-yl)-2-oxopyrrolidine-3-carboxamide], for which the half-inhibitory concentration (IC50) was > 10000 nM.
